This assay addresses T1, recombinant human JAK1 kinase domain protein (Residues 854-1154) (Homo sapiens, UniProt P23458).
T1 construct: human JAK1 kinase domain protein (Residues 854-1154); purchased Proteros Biostructures GmbH (Martinsried, Germany); host or cells: insect cells
Description: JAK1 biochemical assay (microfluidic mobility shift, peptide phosphorylation). The note with it: 25 μM ATP, 1 nM total JAK1; Ki calculated from Ki app (tight-binding, competitive); read-out: Biochem JAK1 Ki. The method, boiled down: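 Insect-cell-expressed human JAK1 (1 nM, residues 854-1154) or JAK2 (0.2 nM, residues 812-1132) phosphorylating 1.5 μM 5-FAM peptide Y-1B with 25 μM ATP, pH 7.2 HEPES, 30 min at 22-23 °C; twelve concentrations up to 1000 nM in duplicate. Mobility-shift % conversion fitted to tight-binding quadratic for Ki^app.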

We go through two compounds from patent publication US12247032B2, “Substituted pyrazolo[1,5-a]pyrimidines as inhibitors of JAK kinases” (Genentech, Inc., priority 2019, dated 2025).

T1 sequence (P23458 854-1154): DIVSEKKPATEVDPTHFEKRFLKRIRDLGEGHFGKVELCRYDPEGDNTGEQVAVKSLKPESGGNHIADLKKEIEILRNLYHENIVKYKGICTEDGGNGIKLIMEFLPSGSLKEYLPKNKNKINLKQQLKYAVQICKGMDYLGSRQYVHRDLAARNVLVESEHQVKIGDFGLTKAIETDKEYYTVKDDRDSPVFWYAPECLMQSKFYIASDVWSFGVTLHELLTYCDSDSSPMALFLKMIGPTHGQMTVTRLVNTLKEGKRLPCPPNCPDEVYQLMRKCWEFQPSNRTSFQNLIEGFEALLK

`CN(C)[C@H]1C[C@H](N2CC(n3nnc(Cn4cc(NC(=O)c5cnn6cccnc56)c(-c5cc(OC(F)F)ccc5OC(F)F)n4)n3)C2)C1` [Example 70, N-[3-[2,5-bis(difluoromethoxy)phenyl]-1-[[2-[1-[3-(dimethylamino)cyclobutyl]azetidin-3-yl]tetrazol-5-yl]methyl]pyrazol-4-yl]pyrazolo[1,5-a]pyrimidine-3-carboxamide]: the Ki is 0.64 nM. The same measure for `CN1CC(N2CC(n3nnc(Cn4cc(NC(=O)c5cnn6cccnc56)c(-c5cc(OC(F)F)ccc5OC(F)F)n4)n3)C2)C1` [Example 78, N-[3-[2,5-bis(difluoromethoxy)phenyl]-1-[[2-[1-(1-methylazetidin-3-yl)azetidin-3-yl]tetrazol-5-yl]methyl]pyrazol-4-yl]pyrazolo[1,5-a]pyrimidine-3-carboxamide; formic acid]: 0.44 nM.
